Earlier results in patent US20190298799A1, “CONTROLLED-RELEASE APOPTOSIS MODULATING COMPOSITIONS AND METHODS FOR THE TREATMENT OF OTIC DISORDERS” (Otonomy, Inc., priority 2008, published 2019).

How the values were obtained:
[1] = test system: neurons and otic hair cells
[2] = test system: cochlear culture; conditions: culture first treated with the inhibitor, then neomycin and/or cisplatin

Row | Compound | protection from aminoglycoside ototoxicity [1] | apoptosis in cochlear culture [2]
1 | CC(=O)N[C@@H](CC(C)C)C(=O)N[C@@H](CC(C)C)C(=O)N[C@H](C=O)CCCNC(=N)N [Leupeptine, leupeptine] | protects neurons and otic hair cells from aminoglycoside ototoxicity | 
2 | C[S+]([O-])c1ccc(-c2nc(-c3ccc(F)cc3)c(-c3ccncc3)[nH]2)cc1 (centres unmarked) [SB-203580, 4-(4-Fluorophenyl)-2-(4-methylsulfinylphenyl)-5-(4-pyridyl) 1H-imidazole] |  | apoptosis is decreased
